Key:
FRT cells = test: Fluo-4 Ca2+ mobilization assay in parental (null) FRT cells; type: cell-based, rat; conditions: for direct Ca2+ mobilization in the absence of UTP (Fluo-4): acute addition, Eact 5 μM, FIG. 2B; for direct Ca2+ mobilization in the absence of UTP (Fluo-4) / potentiation of UTP-dependent Ca2+ increase (Fluo-4): compounds 10 μM; for potentiation of UTP-dependent Ca2+ increase (Fluo-4): FIG. 2A
Procedure: Experiments were performed using the microplate reader described for the HS-YFP assay. FRT and HEK293 cells were cultured until confluence in 96-well microplates (3603, Corning). Cells were washed 2 times with PBS (150 μl/wash) and then loaded for 1 h at 37° C. with 5 μM Fluo-4/AM (Thermo Fisher Scientific; catalog number: F23917) in PBS containing 10 mM glucose, 0.5 mM sulfinpyrazone, and 1% fetal bovine serum. […] Each well was assayed individually. Fluo-4 fluorescence (500 nm excitation, 535 nm emission) was detected every 200 ms for 16-40 s. Two seconds after the start of fluorescence recording, the reader automatically injected 165 μl of a modified PBS containing 136 mM KCl instead of NaCl. This solution also contained 10 mM glucose, 0.5 mM sulfinpyrazone, and UTP or SLIGR-NH2 (CAS #171436-38-7) at a final concentration that depended on the specific cell type. For UTP we used: 0.25 μM for FRT; 1 μM for HEKR2; 5 μM for HEK3XKO, HEKR1, and HEKR3. For SLIGR-NH2 we used: 10 μM for HEKR1; 4 μM for HEKR2. These concentrations were chosen to elicit ˜20% of maximal effect based on UTP and SLIGR-NH2 dose-response relationships. The lower agonist concentrations used for HEKR2 cells, compared to HEKR1 cells, are consistent with the higher affinity of ITPR2 for IP3 (16). The Fluo-4 fluorescence increase was quantified using a procedure compiled in Microsoft Excel after background subtraction and normalization for the initial value measured before UTP addition.
In a further experimental setting, experiments were performed using as above the FLUOstar Omega (BMG Labtech, Offenburg, Germany) microplate reader equipped with syringe pumps and optical excitation/emission filters optimized for yellow fluorescent protein (YFP) fluorescence (ET500/20× and ET535/30m, respectively; Chroma Technology Corporation). FRT and Chem-1 cells were cultured until confluence in 96-well microplates (cc3603, Corning). Cells were washed 2 times with PBS (150 μl/wash) and then loaded for 1 h at 37° C. with 5 μM Fluo-4/AM (Thermo Fisher Scientific; catalog number: F23917) in PBS containing 10 mM glucose, 0.5 mM sulfinpyrazone, and 1% fetal bovine serum. […] Each well was assayed individually. Fluo-4 fluorescence (500 nm excitation, 535 nm emission) was detected every 200 ms for 16-40 s. Two seconds after the start of fluorescence recording, the reader automatically injected 165 μl of a modified PBS containing 136 mM KCl instead of NaCl. This solution also contained, in addition to 10 mM glucose and 0.5 mM sulfinpyrazone, the following agonists: UTP (U6625, Merck) or CCK8s (23371, Cayman Chemical). The Fluo-4 fluorescence increase was quantified using a procedure compiled in Microsoft Excel after background subtraction and normalization for the initial value measured before UTP or CCK8s addition.

ITPR2 = molecular target: T1, ITPR2 (Homo sapiens, UniProt Q14571); test: Fluo-4 Ca2+ assay, UTP, HEK293 cells with selective expression of ITPR2 (HEKR2); type: cell-based; conditions: compounds 10 μM; UTP 1 μM; FIG. 2C
T1 construct: host or cells: HEKR2 (HEK293)
Procedure: HEK293 cells totally devoid of ITPR expression (HEK3XKO) or with selective expression of ITPR1 (HEKR1), ITPR2 (HEKR2), or ITPR3 (HEKR3), obtained by selective gene ablation, were purchased from Kerafast (catalog number: EURO30, EURO31, EURO32, EURO33) and cultured in a mixture of Dulbecco's Modified Eagle Medium (DMEM, high glucose version) and Ham's F12 (1:1) and supplemented with 10% fetal bovine serum, 2 mM L-glutamine, 100 U/ml penicillin and 100 μg/ml streptomycin.
Experiments were performed using the microplate reader described for the HS-YFP assay. FRT and HEK293 cells were cultured until confluence in 96-well microplates (3603, Corning). Cells were washed 2 times with PBS (150 μl/wash) and then loaded for 1 h at 37° C. with 5 μM Fluo-4/AM (Thermo Fisher Scientific; catalog number: F23917) in PBS containing 10 mM glucose, 0.5 mM sulfinpyrazone, and 1% fetal bovine serum. After loading, cells were washed 2 times with PBS-glucose-sulfinpyrazone (150 μl/wash) and incubated for 20 min at 37° C. with 60 μl of PBS plus 10 mM glucose and 0.5 mM sulfinpyrazone containing compounds of interest at 10 μM final concentration or vehicle. Each well was assayed individually. Fluo-4 fluorescence (500 nm excitation, 535 nm emission) was detected every 200 ms for 16-40 s. Two seconds after the start of fluorescence recording, the reader automatically injected 165 μl of a modified PBS containing 136 mM KCl instead of NaCl. This solution also contained 10 mM glucose, 0.5 mM sulfinpyrazone, and UTP or SLIGR-NH2 (CAS #171436-38-7) at a final concentration that depended on the specific cell type. For UTP we used: 0.25 μM for FRT; 1 μM for HEKR2; 5 μM for HEK3XKO, HEKR1, and HEKR3. For SLIGR-NH2 we used: 10 μM for HEKR1; 4 μM for HEKR2. These concentrations were chosen to elicit ˜20% of maximal effect based on UTP and SLIGR-NH2 dose-response relationships. […] The Fluo-4 fluorescence increase was quantified using a procedure compiled in Microsoft Excel after background subtraction and normalization for the initial value measured before UTP addition.

T1 sequence (Q14571 whole entry): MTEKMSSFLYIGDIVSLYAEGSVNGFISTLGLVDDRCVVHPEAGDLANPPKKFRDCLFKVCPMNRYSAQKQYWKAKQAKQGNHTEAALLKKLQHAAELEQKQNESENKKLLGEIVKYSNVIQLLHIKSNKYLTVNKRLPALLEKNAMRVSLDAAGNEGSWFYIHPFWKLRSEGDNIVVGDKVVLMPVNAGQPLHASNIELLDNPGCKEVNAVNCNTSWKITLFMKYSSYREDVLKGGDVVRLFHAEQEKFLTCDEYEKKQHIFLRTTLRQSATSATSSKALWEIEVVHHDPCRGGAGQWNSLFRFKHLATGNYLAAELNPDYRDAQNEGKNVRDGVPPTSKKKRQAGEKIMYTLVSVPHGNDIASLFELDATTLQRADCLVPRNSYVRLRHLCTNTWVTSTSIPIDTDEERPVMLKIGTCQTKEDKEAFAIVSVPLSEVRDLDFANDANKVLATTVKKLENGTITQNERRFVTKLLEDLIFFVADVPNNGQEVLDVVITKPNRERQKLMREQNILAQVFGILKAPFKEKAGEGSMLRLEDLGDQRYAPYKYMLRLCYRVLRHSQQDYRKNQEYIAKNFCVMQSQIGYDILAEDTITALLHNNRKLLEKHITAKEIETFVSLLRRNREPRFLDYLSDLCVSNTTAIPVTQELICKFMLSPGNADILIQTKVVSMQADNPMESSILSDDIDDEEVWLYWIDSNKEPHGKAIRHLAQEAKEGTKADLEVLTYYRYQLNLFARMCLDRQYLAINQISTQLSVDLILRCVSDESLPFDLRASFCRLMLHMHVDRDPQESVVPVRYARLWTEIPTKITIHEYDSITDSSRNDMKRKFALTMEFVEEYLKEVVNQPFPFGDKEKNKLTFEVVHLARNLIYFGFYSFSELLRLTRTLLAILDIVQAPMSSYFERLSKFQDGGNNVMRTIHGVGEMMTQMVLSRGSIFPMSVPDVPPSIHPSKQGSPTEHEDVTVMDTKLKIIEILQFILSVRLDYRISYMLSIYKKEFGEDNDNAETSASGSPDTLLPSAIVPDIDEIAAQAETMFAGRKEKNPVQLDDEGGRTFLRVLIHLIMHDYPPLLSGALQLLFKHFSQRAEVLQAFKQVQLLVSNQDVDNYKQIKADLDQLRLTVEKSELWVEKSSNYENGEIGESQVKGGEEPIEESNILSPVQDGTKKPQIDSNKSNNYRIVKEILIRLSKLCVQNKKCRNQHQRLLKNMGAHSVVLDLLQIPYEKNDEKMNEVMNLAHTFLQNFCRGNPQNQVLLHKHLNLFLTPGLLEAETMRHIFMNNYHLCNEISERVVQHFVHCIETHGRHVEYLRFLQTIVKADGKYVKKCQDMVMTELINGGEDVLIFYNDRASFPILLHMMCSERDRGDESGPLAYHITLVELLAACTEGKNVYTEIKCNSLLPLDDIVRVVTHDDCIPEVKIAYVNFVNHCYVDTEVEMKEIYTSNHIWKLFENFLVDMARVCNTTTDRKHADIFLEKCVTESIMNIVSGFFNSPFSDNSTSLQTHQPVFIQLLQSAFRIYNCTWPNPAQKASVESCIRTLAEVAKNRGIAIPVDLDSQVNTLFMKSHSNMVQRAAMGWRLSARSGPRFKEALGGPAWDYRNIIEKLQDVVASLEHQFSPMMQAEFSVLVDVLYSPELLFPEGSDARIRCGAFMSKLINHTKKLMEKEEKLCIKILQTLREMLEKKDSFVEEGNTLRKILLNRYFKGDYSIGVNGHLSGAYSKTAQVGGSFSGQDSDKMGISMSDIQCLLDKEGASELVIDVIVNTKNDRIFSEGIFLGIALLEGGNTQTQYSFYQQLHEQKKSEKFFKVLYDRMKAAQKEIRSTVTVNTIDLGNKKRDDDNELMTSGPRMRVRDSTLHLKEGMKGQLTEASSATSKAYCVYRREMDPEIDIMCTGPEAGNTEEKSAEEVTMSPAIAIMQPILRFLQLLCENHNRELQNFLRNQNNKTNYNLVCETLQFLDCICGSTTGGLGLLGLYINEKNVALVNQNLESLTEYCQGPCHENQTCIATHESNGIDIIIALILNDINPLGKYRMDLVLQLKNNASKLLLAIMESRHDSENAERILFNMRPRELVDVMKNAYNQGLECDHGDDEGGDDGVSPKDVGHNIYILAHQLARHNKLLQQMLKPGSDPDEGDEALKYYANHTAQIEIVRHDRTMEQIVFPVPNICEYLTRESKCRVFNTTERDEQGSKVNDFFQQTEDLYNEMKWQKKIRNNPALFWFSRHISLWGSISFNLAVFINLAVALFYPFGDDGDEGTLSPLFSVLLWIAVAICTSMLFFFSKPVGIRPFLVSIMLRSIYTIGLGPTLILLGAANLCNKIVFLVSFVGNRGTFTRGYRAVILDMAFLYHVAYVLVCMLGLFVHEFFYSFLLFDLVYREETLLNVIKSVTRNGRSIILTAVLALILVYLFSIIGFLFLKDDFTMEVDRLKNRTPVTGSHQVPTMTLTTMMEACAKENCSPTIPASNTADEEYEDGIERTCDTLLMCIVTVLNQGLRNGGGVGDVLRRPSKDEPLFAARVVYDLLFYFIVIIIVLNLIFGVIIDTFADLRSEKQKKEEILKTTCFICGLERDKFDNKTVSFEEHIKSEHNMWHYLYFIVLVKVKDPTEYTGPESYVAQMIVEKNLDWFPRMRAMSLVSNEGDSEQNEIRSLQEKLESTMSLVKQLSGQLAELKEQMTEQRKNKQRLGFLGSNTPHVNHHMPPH

| Structure (SMILES) | direct Ca2+ mobilization in the absence of UTP (Fluo-4) (FRT cells) | potentiation of UTP-dependent Ca2+ increase (Fluo-4) (FRT cells; UTP 0.25 μM) | potentiation of UTP-elicited Ca2+ increase, ITPR2-only cells (ITPR2) | potentiation of the Ca2+ increase elicited by UTP, multiple concentrations (FRT cells; UTP 0.25 μM, compounds 1-80 μM, vs vehicle (DMSO), FIG. 8) |
| --- | --- | --- | --- | --- |
| CCc1cc(-c2cc(NCCCOc3ccccc3C)nc(N)n2)n(C)n1 [ARN7149, 6-(3-Ethyl-1-methyl-1H-pyrazol-5-yl)-N^4-(3-(o-tolyloxy)propyl)pyrimidine-2,4-diamine] | No effect | able to potentiate | always effective |  |
| OCc1ccccc1CN(Cc1ccnc(N2CCCC2)n1)c1ccc(F)cc1 [ARN4550, [2-[[4-Fluoro-N-[(2-pyrrolidin-1-ylpyrimidin-4-yl)methyl]anilino]methyl]phenyl]methanol] | No effect | able to potentiate | always effective |  |
| CCn1nc2c(c1C(=O)Nc1ccccc1OCC1CCCCO1)CCCC2 (stereo not shown) [ARN11391, 2-Ethyl-N-[2-(tetrahydropyran-2-ylmethoxy)phenyl]-4,5,6,7-tetrahydroindazole-3-carboxamide] | No effect | able to potentiate | only effective in cells with ITPR1 | dose-dependent potentiation |

Reference: US20260138970A1, “MODULATORS OF THE CALCIUM SIGNALING CASCADE” (FONDAZIONE TELETHON ETS, priority 2022, published 2026)
